# What was measured:
# [1] = maximally tolerated dose, continuous infusion up to 14 days, subjects with symptomatic HIV infection; cited from earlier work
# [2] = Maximum tolerated dose in rats
# [3] = Maximum tolerated dose in dogs
# [4] = Maximum tolerated dose in monkeys
substance,measurement,setting,value
dextran sulfate [listing 1 of 3 here],toxicity of continuous intravenous infusion,[1],toxic
dextran sulfate [listing 2 of 3 here],maximum tolerated dose (MTD),[2],about 800 mg/kg/day
dextran sulfate [listing 3 of 3 here],maximum tolerated dose (MTD),[3],about 500 mg/kg/day
same,maximum tolerated dose (MTD),[4],about 300 mg/kg/day

# — patent publication US20080004236A1, “High Dose, Short Interval Use of Sulfated Polysaccharides for Treatment of Infections” (priority 2004, published 2008)
